Read-outs that look alike come from different tables or passages of the source.
Tests used:
Assay in all cases: Test D pre-/postemergence plant response
Assay type in all cases: in vivo
[1] = test system: giant foxtail (Setaria faberii); settings: Setaria faberi, pre-emergence, Preemergence
Summary of the method: (§1)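 Two application timings were run together: preemergence onto seeded loam–sand pots, and postemergence onto 1- to 4-leaf plants (2 to 18 cm) in peat/vermiculite medium with starter nutrients. Formulation was a non-phytotoxic solvent with surfactant. Ratings, 0 to 100, were made visually versus controls after 13 to 15 greenhouse days.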

[2] = test system: large (Lg) crabgrass (Digitaria sanguinalis); settings: Digitaria sanguinalis; for pest or weed control at 31 g/ha: 31 g ai/ha; for pest or weed control at 62 g/ha: 62 g ai/ha; for pest or weed control at 125 g/ha: 125 g ai/ha; for pest or weed control at 250 g/ha: 250 g ai/ha
Summary of the method: as §1

[3] = test system: oilseed rape (Brassica napus); settings: Brassica napus; for plant injury at 31 g/ha: 31 g ai/ha; for plant injury at 62 g/ha: 62 g ai/ha; for plant injury at 125 g/ha: 125 g ai/ha; for plant injury at 250 g/ha: 250 g ai/ha
Summary of the method: as §1

[4] = test system: pigweed (Amaranthus retroflexus); settings: Amaranthus retroflexus; for pest or weed control at 31 g/ha: 31 g ai/ha; for pest or weed control at 62 g/ha: 62 g ai/ha; for pest or weed control at 125 g/ha: 125 g ai/ha; for pest or weed control at 250 g/ha: 250 g ai/ha
Summary of the method: as §1

[5] = test system: ragweed (common ragweed, Ambrosia elatior); settings: Ambrosia artemisiifolia; for pest or weed control at 31 g/ha: 31 g ai/ha; for pest or weed control at 62 g/ha: 62 g ai/ha; for pest or weed control at 125 g/ha: 125 g ai/ha; for pest or weed control at 250 g/ha: 250 g ai/ha
Summary of the method: as §1

[6] = test system: yellow nutsedge (Cyperus esculentus); settings: Cyperus; for pest or weed control at 31 g/ha: 31 g ai/ha; for pest or weed control at 62 g/ha: 62 g ai/ha; for pest or weed control at 125 g/ha: 125 g ai/ha; for pest or weed control at 250 g/ha: 250 g ai/ha
Summary of the method: as §1

[7] = post-emergence, Postemergence, scale 0 to 100, 0 no effect, 100 complete control, read-out: Plant response rating, Crabgrass, Large
[8] = pre-emergence, Preemergence, read-out: Plant response rating (scale 0 to 100), Crabgrass, Large
[9] = pre-emergence, Preemergence, scale 0 to 100 (0 no effect, 100 complete control), read-out: Plant response rating, Crabgrass, Large
[10] = post-emergence, Postemergence, scale 0 to 100, 0 no effect, 100 complete control, read-out: Plant response rating, Oilseed Rape
[11] = pre-emergence, Preemergence, read-out: Plant response rating (scale 0 to 100), Oilseed Rape
[12] = pre-emergence, Preemergence, scale 0 to 100 (0 no effect, 100 complete control), read-out: Plant response rating, Oilseed Rape
[13] = post-emergence, Postemergence, scale 0 to 100, 0 no effect, 100 complete control, read-out: Plant response rating, Pigweed
[14] = pre-emergence, Preemergence, read-out: Plant response rating (scale 0 to 100), Pigweed
[15] = pre-emergence, Preemergence, scale 0 to 100 (0 no effect, 100 complete control), read-out: Plant response rating, Pigweed
[16] = post-emergence, Postemergence, scale 0 to 100, 0 no effect, 100 complete control, read-out: Plant response rating, Ragweed
[17] = pre-emergence, Preemergence, read-out: Plant response rating (scale 0 to 100), Ragweed
[18] = pre-emergence, Preemergence, scale 0 to 100 (0 no effect, 100 complete control), read-out: Plant response rating, Ragweed
[19] = post-emergence, Postemergence, scale 0 to 100, 0 no effect, 100 complete control, read-out: Plant response rating, Nutsedge, Yellow
[20] = pre-emergence, Preemergence, read-out: Plant response rating (scale 0 to 100), Nutsedge, Yellow
[21] = pre-emergence, Preemergence, scale 0 to 100 (0 no effect, 100 complete control), read-out: Plant response rating, Nutsedge, Yellow

FC(F)c1cc(-c2ccccc2Oc2ncc(Br)cn2)no1 [Compound 62, 5-bromo-2-[2-[5-(difluoromethyl)-3-isoxazolyl]phenoxy]pyrimidine]
pest or weed control at 125 g/ha ([1]; 125 g ai/ha, read-out: Plant response rating (scale 0 to 100), Foxtail, Giant): 100% | pest or weed control at 250 g/ha ([1]; 250 g ai/ha, read-out: Plant response rating (scale 0 to 100), Foxtail, Giant): 100% | pest or weed control at 31 g/ha ([1]; 31 g ai/ha, scale 0 to 100 (0 no effect, 100 complete control), read-out: Plant response rating, Foxtail, Giant): 95% | pest or weed control at 62 g/ha ([1]; 62 g ai/ha, scale 0 to 100 (0 no effect, 100 complete control), read-out: Plant response rating, Foxtail, Giant): 100% | pest or weed control at 31 g/ha ([2]; post-emergence, Postemergence, scale 0 to 100 (0 no effect, 100 complete control), read-out: Crabgrass, Large plant response rating): 55% | pest or weed control at 62 g/ha [2, 7]: 35% | pest or weed control at 125 g/ha [2, 7]: 50% | pest or weed control at 250 g/ha [2, 7]: 65% | pest or weed control at 125 g/ha [2, 8]: 100% | pest or weed control at 250 g/ha [2, 8]: 100% | pest or weed control at 31 g/ha [2, 9]: 95% | pest or weed control at 62 g/ha [2, 9]: 100% | plant injury at 31 g/ha ([3]; post-emergence, Postemergence, scale 0 to 100 (0 no effect, 100 complete control), read-out: Oilseed Rape plant response rating): 80% | plant injury at 62 g/ha [3, 10]: 90% | plant injury at 125 g/ha [3, 10]: 98% | plant injury at 250 g/ha [3, 10]: 100% | plant injury at 125 g/ha [3, 11]: 100% | plant injury at 250 g/ha [3, 11]: 100% | plant injury at 31 g/ha [3, 12]: 100% | plant injury at 62 g/ha [3, 12]: 98% | pest or weed control at 31 g/ha ([4]; post-emergence, Postemergence, scale 0 to 100 (0 no effect, 100 complete control), read-out: Pigweed plant response rating): 98% | pest or weed control at 62 g/ha [4, 13]: 100% | pest or weed control at 125 g/ha [4, 13]: 100% | pest or weed control at 250 g/ha [4, 13]: 100% | pest or weed control at 125 g/ha [4, 14]: 100% | pest or weed control at 250 g/ha [4, 14]: 100% | pest or weed control at 31 g/ha [4, 15]: 100% | pest or weed control at 62 g/ha [4, 15]: 100% | pest or weed control at 31 g/ha ([5]; post-emergence, Postemergence, scale 0 to 100 (0 no effect, 100 complete control), read-out: Ragweed plant response rating): 65% | pest or weed control at 62 g/ha [5, 16]: 60% | pest or weed control at 125 g/ha [5, 16]: 65% | pest or weed control at 250 g/ha [5, 16]: 85% | pest or weed control at 125 g/ha [5, 17]: 75% | pest or weed control at 250 g/ha [5, 17]: 85% | pest or weed control at 31 g/ha [5, 18]: 0% | pest or weed control at 62 g/ha [5, 18]: 65% | pest or weed control at 31 g/ha ([6]; post-emergence, Postemergence, scale 0 to 100 (0 no effect, 100 complete control), read-out: Nutsedge, Yellow plant response rating): 5% | pest or weed control at 62 g/ha [6, 19]: 5% | pest or weed control at 125 g/ha [6, 19]: 5% | pest or weed control at 250 g/ha [6, 19]: 10% | pest or weed control at 125 g/ha [6, 20]: 10% | pest or weed control at 250 g/ha [6, 20]: 60% | pest or weed control at 31 g/ha [6, 21]: 0% | pest or weed control at 62 g/ha [6, 21]: 5%
